In a melting point compilation (Tetko et al.; mined from patent text by program, amines drawn as free bases though some values may be those of a salt):

Compound | melting point [°C]
CCCCCCCCCCOc1ccc(-c2ccccc2)cc1 | 70 to 73
Cc1c(C#N)ccc2nc(N)nc(N)c12 | > 270
COC(=O)c1cc(Cl)c2c(c1Cl)OC(c1ccccc1)(c1ccccc1)O2 | 69 to 70
O=C(c1cncc(Br)c1)N1CCOCC1 | 49 to 51
O=C(OC(=O)c1cccnc1)c1cccnc1 | 162 to 164
CCOc1ccc2c(=O)cc(-c3ccccc3O)oc2c1 | 295 to 297
N#Cc1cc2c3ccccc3[nH]c(=O)n2n1 | 302 to 304
O=CCCc1cn(-c2cccnc2)c2ccccc12 | 44 to 45
Cc1cc2[nH]cc(CSCC(=O)N3CC=C(c4ccccc4)CC3)c2cc1C | 167 to 169
Clc1ccc(-c2nnc(Cl)s2)cc1 | 125 to 127
CO[C@@H]1CN(CCn2c(C)nc3ccccc3c2=O)CC[C@@H]1NC(=O)c1cc(Cl)c(N)c2c1OCC2 (relative stereo) | 275
CCc1[nH]n(C2CCCC2)c2nc(Cc3cccs3)nc(=O)c1-2 | 173 to 174
CC1(C)c2ccccc2C(C)(C)C1(S)CCO | 85 to 87
CC#CC1CCC(C2CCC(c3ccc(CCC)cc3)CC2)CC1 (configuration not stated) | 70
CCCN(C(N)=S)c1ccc(Cl)cc1Cl | 121
Cn1ncc(C(=O)N2CCOCC2)c1C(=O)Nc1ccn2nc(Br)nc2c1 | 198 to 214
CC1=Nc2ccccc2CC(c2ccc(C)s2)N1C (configuration not stated) | 139 to 140
COc1ccc(C)cc1NC(=O)Nc1ccc(N2CCN(C(=O)Oc3c(C)cccc3Cl)CC2)cc1 | 146 to 148
O=C(c1ccc2ccccc2n1)N1CCN=C1Nc1c(Cl)cccc1Cl | 194 to 196
O=C(c1ccc(Cl)c([N+](=O)[O-])c1)c1cnc(NC2CCCCC2)s1 | 194 to 198
C[C@@H](NC(=O)c1c[nH]c2ncc(-c3nn(C)c4cc(F)ccc34)nc12)C(=O)N1CC(C#N)C1 | 270 to 277

Compound | melting point [°C]
CNC(=O)c1ccc(N2CC(CNC(C)=S)OC2=O)cc1F (configuration not stated) | 176 to 177
CN1Cc2c(F)ncn2-c2ccccc2C1=O | 171 to 172
CCN(CCOc1ccc(Cl)c2[nH]cc(Cl)c12)c1ccsc1 | 123 to 125
O=C(O)CCCn1ccc(=O)c(O)c1Cc1ccccc1 | 170 to 172
CCc1cnc(N2CCC(c3ccc4[nH]c(-c5ccc(S(C)(=O)=O)cc5F)nc4c3)CC2)nc1 | 220 to 224
CCCCN(C)C(=O)CS(=O)CCCCCCOc1ccc(C2=C(c3ccccc3)CCCc3cc(O)ccc32)cc1 (configuration not stated) | 72 to 73
CN1C(=O)Cc2cnc(N3CCN(C(c4ccccc4)c4ccccc4)CC3)nc21 | 75 to 80
CN1CC=C(c2c[nH]c3cc(Cl)c(Cl)cc23)CC1 | 255 to 257
COC(=O)NC1=NC(c2ccc(I)cc2)CN1 (configuration not stated) | 229 to 230
COc1ccc(Br)c2c1C[C@H](N(Cc1ccccc1)Cc1ccccc1)CC2 | 100 to 101
N#CCCNC(=O)c1cccc(-c2cccc3nn(Cc4cccc(Cl)c4)cc23)c1 | 185 to 186
CC(=O)Oc1ccc(N=c2scc(-c3ccc(Cl)c(S(=O)(=O)N(C)C)c3)n2C)cc1 | 173 to 174
CCn1cc(C(=O)O)c(=O)c2cc(F)c(N3Cc4ccc(N)cc4C3)cc21 | > 300
COC1CC2(C)C(CCC3C4CC(C)C(C(C)=O)C4(C)CC(=O)C32)CC1O (configuration not stated) | 180 to 182
CC(Cc1ccc(OCCCCCCCCCCCO)cc1)NCC(O)c1cccc(C(F)(F)F)c1 (configuration not stated) | 45 to 50
N=C(N)c1ccc(-n2cnn(-c3ccc(CCC(=O)O)cc3)c2=O)cc1 | 313 to 316
CC1Cn2c(nc3c(c2=O)CCCC3)-c2[nH]c3ccccc3c21 (configuration not stated) | 220 to 221
CCCCC1N=CC(C=O)(Cc2ccc(C(=O)OC)c3ccccc23)N1 (configuration not stated) | 95.5 to 97
CC(C)n1cc(C2(c3ccc(F)c(Br)c3)N=C(N)N(C)C2=O)cn1 (configuration not stated) | 80 to 82
Cc1ccc2c(c1)C(=O)C[C@H]1CCN(C)C[C@H]21 (relative stereo) | > 250
CC(=O)NC1CCS(=O)(=O)c2sc(S(N)(=O)=O)cc21 (configuration not stated) | 263 to 265

Compound | melting point [°C]
Nc1c(F)c(F)c(F)c2c1c(=O)c(C(=O)O)cn2C1CC1 | 269 to 271
N#Cc1cc([N+](=O)[O-])ccc1OC1CCCCC1 | 97 to 98
CC(C)Cn1c(=O)n(C)c(=O)c2c(SCCCO)n(Cc3cccc4ccccc34)nc21 | 135
NS(=O)(=O)c1cc(C2OCCO2)cs1 | 225 to 227
CN1C(=O)C(NC(=O)Nc2ccc(Br)cc2)N=C(c2ccccc2)c2ccccc21 (configuration not stated) | 286 to 287
O=C1c2ccccc2C(=O)N1CCc1cc(Br)cs1 | 115 to 117
Nc1ccc(S(=O)(=O)c2cc(Cl)nc(Cl)c2)cc1 | 190 to 192
c1ccc(-n2c3ccccc3c3cc(-n4ccnc4-c4nccn4-c4ccc5c(c4)c4ccccc4n5-c4ccccn4)ccc32)nc1 | 215 to 227
N#CC(=C(Nc1cc(C(F)(F)F)cc(C(F)(F)F)c1)NC1CCCC1)S(=O)(=O)c1ccc(Cl)cc1 | 199 to 200
O=C(O)C1=Cc2cc(Cl)c(C(F)(F)F)cc2OC1C(F)(F)F (configuration not stated) | 181 to 182
CC1(C)Oc2ccc(C#N)cc2C(n2ccccc2=O)C1O (configuration not stated) | 243
CSC1C(=O)Nc2ccc(C3=NNC(=O)SC3)cc21 (configuration not stated) | 201 to 204
C=C1CN(S(=O)(=O)c2ccc(C)cc2)CCCN(Cc2ccccc2)CCCN(S(=O)(=O)c2ccc(C)cc2)C1 | 156 to 158
O=C(Cc1ccc(Cl)cc1)Nc1ccc(O)cc1O | 178 to 179
CCCCc1ccc(NC(=O)c2ccccc2C(c2ccc(O)cc2)c2ccc(O)cc2)cc1 | 119 to 121
Nc1ccc(O)c(-c2cccs2)c1 | 130 to 132
N#Cc1cccc(C2C(=O)c3ccccc3C2=O)c1 | 179 to 182
c1ccc([C@H]2C[C@@H]2Nc2cc(-c3ccco3)nc(-c3nccs3)n2)cc1 (relative stereo) | 90 to 91.9
COc1ccc(OC)c(C2(O)CCCCC2C(c2ccccc2)N(C)C)c1 (configuration not stated) | > 240
O=C(Cc1ccccc1)NC1CN(C(C(=O)OCc2ccccc2)c2ccccc2)C1=O (configuration not stated) | 96 to 98
Clc1ccc2c(c1)c(-c1ccccc1)cc1nncn12 | 265 to 266

Next, values leading:

melting point [°C] | Compound
323 to 326 | Cn1nc2c(N)nc3ncccc3c2c1CC(C)(C)C
225 to 227 | O=C(O)COc1ccc2c(-c3ccoc3)noc2c1Cl
> 220 | CSc1nn2c(O)cc(CN(C)C)nc2c1S(=O)(=O)c1ccccc1
206 | CCN(C)CCOc1ccc(/C=C/C(=O)O)cc1
245 to 246 | CC(/C=C/C=C(\C)C1=Cc2cc(C(F)(F)F)ccc2OC1)=C\C(=O)O
131 to 133 | CCCc1c2c(cc3c(=O)cc(C(=O)OCC)oc13)C(O)C(C(=O)OCC)(C(=O)OCC)O2 (configuration not stated)
77 to 80 | COC(=O)c1cccc(CC#N)c1[N+](=O)[O-]
144 to 146 | CCCc1c(OCCCCCC(=O)c2ccc3cc(OC)c(OC)cc3c2)ccc(C(=O)O)c1O
235 to 236 | NNC(=O)c1ccc(C(=O)O)cc1
171 to 173 | COC(=O)CCNc1c(C#N)cnn1-c1c(Cl)cc(C(F)(F)F)cc1Cl
104 to 110 | COc1cc(OC)nc(OC(C(=O)O)C(C)(C)CO)n1 (configuration not stated)
180 to 185 | Cc1ccc(-c2ccc(Cl)c(C(=O)NCC34CC5CC(CC(C5)C3)C4)c2)nc1C(=O)O
118 to 119 | CCOC(=O)C1CCc2c(sc3nc(CN4C(=O)COC4=O)c(Cl)c(-c4ccc(OC)cc4)c23)C1 (configuration not stated)
112 to 113 | CCOC(=O)COc1cc2c(c(Cl)c1Cl)C(=O)C(CC#C[Si](C)(C)C)(c1ccccc1)C2 (configuration not stated)
73 to 75 | CCOC(=O)c1cc2ccc(C)c(Cl)c2[nH]1
177 to 178 | Cc1nc(-c2ccccc2)nc(-c2cccc([N+](=O)[O-])c2)c1CO
135 | CC(C)(Oc1ccc(Cl)cc1)C(O)(Cn1cncn1)c1ccc(Cl)cc1 (configuration not stated)
220 to 222 | COc1cc(C(C)C#Cc2cnc(N)nc2N)cc(OC)c1OC (configuration not stated)
84 to 87 | COc1ccc2nc(CCCCCCC(=O)O)ccc2c1
149 to 151 | CCOC(=O)c1cc(-c2cc(C)on2)[nH]n1

melting point [°C] | Compound
209 to 211 | CCc1nc2c(N)nc3ccccc3c2n1CCCS(=O)(=O)N(C)C
115 to 116 | CCOC(=O)CNc1ncccc1NC(=O)c1ccccc1
250 to 252 | COc1ccc2cc(S(=O)(=O)Cc3ccc(OC)c([N+](=O)[O-])c3)c(=O)oc2c1
103 to 104 | CCCc1nn(-c2ccc(C(F)(F)F)cn2)cc1CCCOc1nn(C)cc1CCC(=O)O
162 to 164 | COC(=O)NN=Cc1nc(-c2cccc(C)c2)[nH]c1C
131 to 133 | CC(c1ccc(-c2ccccc2F)cc1)S(=O)CC(=O)N(C)C (configuration not stated)
> 300 | [N-]=[N+]=NCc1cc(C(N)C(=O)O)ccc1O (configuration not stated)
115 to 116 | COc1ccc(C(C)(O)c2ocnc2C)cc1 (configuration not stated)
135 to 137 | Cc1ccc2c(c1)N(C(=O)CN(C)C)c1ccccc1S(=O)(=O)N2C
57 to 59 | COc1ccc(Sc2ccncc2)c([N+](=O)[O-])c1
130 | CCCc1nc(C)n2nc(SC)nc2c1Cc1ccc([N+](=O)[O-])cc1
171 to 172 | CC(=O)OCc1ccc(-c2nc(=O)c3ccccc3s2)cn1
90 to 96 | COc1cc2cn(CC3CCCCO3)nc2cc1OC (configuration not stated)
262 to 264 | CCOC(=O)c1cnc2ccc(CC)nc2c1O
86 to 87 | Cc1c(SCCCCSCCn2c([N+](=O)[O-])cnc2C)ccnc1CO
195 to 196 | CCOC(=O)c1c(OCC)nsc1NC(=O)NC
244 to 245 | CC1OC(n2cnc3c(N)nc(F)nc32)C(O)C1O (configuration not stated)
250 to 255 | COc1cc2ncc(C#N)c(Nc3cccc(CO)c3)c2cc1OC
319 to 321 | O=C(CCn1cnc2c(=O)[nH]cnc21)Nc1ccc(C(=O)O)cc1
